# According to PubChem BioAssay AID180 (DTP/NCI, 2004):
# Several values for one entry are separate records, joined by “and”; a condition that tells them apart may be missing. Equal values may be shown once.
# System: BDF1 mice, Adenocarcinoma 755 s.c., tumor weight T/C
# Experiment: NCI In Vivo Anticancer Drug Screen. Data for tumor model Adenocarcinoma 755 (subcutaneous) in B6D2F1 (BDF1) mice
# Conditions: endpoint: mean tumor weight, higher = larger tumour
# How it was run: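 In vivo antitumor screen on a transplantable tumor line. Result equals the measure in compound-treated animals divided by the same measure in vehicle controls.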
smiles,measurement,setting,value
CC(=O)N(C)C,T/C,"dose: 125.0 mg/kg/injection, schedule: Q#A X022 (ip), vehicle: saline",84 % of control
same,T/C,"dose: 250.0 mg/kg/injection, schedule: Q01DX011 (ip), vehicle: saline",93 % of control and 105 % of control
same,T/C,"dose: 250.0 mg/kg/injection, schedule: Q01DX011 (sc), vehicle: saline",100 % of control
same,T/C,"dose: 250.0 mg/kg/injection, schedule: Q03DX004 (ip), vehicle: saline",64 % of control
same,T/C,"dose: 500.0 mg/kg/injection, schedule: Q01DX006 (iv), vehicle: saline",99 % of control
same,T/C,"dose: 500.0 mg/kg/injection, schedule: Q01DX011 (im), vehicle: saline",155 % of control
same,T/C,"dose: 500.0 mg/kg/injection, schedule: Q01DX011 (ip), vehicle: saline",98 % of control and 77 % of control
same,T/C,"dose: 500.0 mg/kg/injection, schedule: Q03DX004 (ip), vehicle: saline",79 % of control
same,T/C,"dose: 500.0 mg/kg/injection, schedule: Q#A X022 (ip), vehicle: saline",57 % of control
same,T/C,"dose: 750.0 mg/kg/injection, schedule: Q01DX011 (ip), vehicle: other",28 % of control
same,T/C,"dose: 750.0 mg/kg/injection, schedule: Q03DX004 (ip), vehicle: saline",84 % of control
same,T/C,"dose: 1000.0 mg/kg/injection, schedule: Q01DX001 (ip), vehicle: saline",72 % of control and 84 % of control
same,T/C,"dose: 1000.0 mg/kg/injection, schedule: Q01DX006 (iv), vehicle: saline",80 % of control
same,T/C,"dose: 1000.0 mg/kg/injection, schedule: Q01DX011 (im), vehicle: saline",78 % of control
same,T/C,"dose: 1000.0 mg/kg/injection, schedule: Q01DX011 (ip), vehicle: other",16 % of control
same,T/C,"dose: 1000.0 mg/kg/injection, schedule: Q01DX011 (sc), vehicle: saline",66 % of control and 71 % of control
same,T/C,"dose: 1000.0 mg/kg/injection, schedule: Q03DX004 (ip), vehicle: saline",91 % of control
same,T/C,"dose: 1000.0 mg/kg/injection, schedule: Q#A X022 (ip), vehicle: saline",29 % of control
same,T/C,"dose: 1250.0 mg/kg/injection, schedule: Q01DX011 (ip), vehicle: other",5 % of control
same,T/C,"dose: 1500.0 mg/kg/injection, schedule: Q03DX004 (ip), vehicle: saline",81 % of control
same,T/C,"dose: 2000.0 mg/kg/injection, schedule: Q01DX006 (iv), vehicle: saline",67 % of control
same,T/C,"dose: 2000.0 mg/kg/injection, schedule: Q01DX011 (im), vehicle: saline",22 % of control
same,T/C,"dose: 2000.0 mg/kg/injection, schedule: Q01DX011 (ip), vehicle: saline",16 % of control and 17 % of control
same,T/C,"dose: 2000.0 mg/kg/injection, schedule: Q01DX011 (oral), vehicle: saline",48 % of control and 57 % of control
same,T/C,"dose: 2000.0 mg/kg/injection, schedule: Q01DX011 (sc), vehicle: saline",64 % of control
same,T/C,"dose: 2000.0 mg/kg/injection, schedule: Q03DX004 (ip), vehicle: saline",69 % of control
same,T/C,"dose: 3000.0 mg/kg/injection, schedule: Q03DX004 (ip), vehicle: saline",36 % of control
same,T/C,"dose: 4000.0 mg/kg/injection, schedule: Q01DX011 (oral), vehicle: saline",11 % of control
Nc1nc2n[nH]nc2c(=O)[nH]1,T/C,"dose: 11.18 mg/kg/injection, schedule: Q01DX011 (ip), vehicle: carboxymethylcellulose (CMC)",80 % of control
same,T/C,"dose: 12.5 mg/kg/injection, schedule: Q01DX011 (ip), vehicle: other",62 % of control and 80 % of control
same,T/C,"dose: 13.55 mg/kg/injection, schedule: Q01DX011 (ip), vehicle: carboxymethylcellulose (CMC)",85 % of control
same,T/C,"dose: 17.88 mg/kg/injection, schedule: Q01DX011 (ip), vehicle: carboxymethylcellulose (CMC)",98 % of control
same,T/C,"dose: 22.35 mg/kg/injection, schedule: Q01DX011 (ip), vehicle: carboxymethylcellulose (CMC)",70 % of control and 76 % of control
same,T/C,"dose: 27.1 mg/kg/injection, schedule: Q01DX011 (ip), vehicle: carboxymethylcellulose (CMC)",80 % of control
same,T/C,"dose: 29.8 mg/kg/injection, schedule: Q01DX011 (ip), vehicle: carboxymethylcellulose (CMC)",59 % of control
same,T/C,"dose: 37.5 mg/kg/injection, schedule: Q01DX011 (sc), vehicle: carboxymethylcellulose (CMC)",11 % of control
same,T/C,"dose: 44.7 mg/kg/injection, schedule: Q01DX011 (ip), vehicle: carboxymethylcellulose (CMC)",17 % of control and 33 % of control
same,T/C,"dose: 75.0 mg/kg/injection, schedule: Q01DX011 (sc), vehicle: carboxymethylcellulose (CMC)",5 % of control
same,T/C,"dose: 89.4 mg/kg/injection, schedule: Q01DX011 (ip), vehicle: carboxymethylcellulose (CMC)",4 % of control and 6 % of control
same,T/C,"dose: 108.4 mg/kg/injection, schedule: Q01DX011 (ip), vehicle: carboxymethylcellulose (CMC)",3 % of control and 4 % of control
CCCCn1cnc2c(=S)nc[nH]c21,T/C,"dose: 2.5 mg/kg/injection, schedule: Q01DX011 (ip), vehicle: carboxymethylcellulose (CMC)",62 % of control
same,T/C,"dose: 5.0 mg/kg/injection, schedule: Q01DX011 (ip), vehicle: carboxymethylcellulose (CMC)",25 % of control
same,T/C,"dose: 5.0 mg/kg/injection, schedule: Q01DX011 (ip), vehicle: olive oil, sesame oil, peanut oil",41 % of control
same,T/C,"dose: 5.0 mg/kg/injection, schedule: Q#A X022 (ip), vehicle: carboxymethylcellulose (CMC)",4 % of control
same,T/C,"dose: 8.0 mg/kg/injection, schedule: Q01DX011 (ip), vehicle: carboxymethylcellulose (CMC)",32 % of control
same,T/C,"dose: 10.0 mg/kg/injection, schedule: Q01DX006 (iv), vehicle: carboxymethylcellulose (CMC)",20 % of control
same,T/C,"dose: 10.0 mg/kg/injection, schedule: Q01DX011 (im), vehicle: carboxymethylcellulose (CMC)",5 % of control
same,T/C,"dose: 10.0 mg/kg/injection, schedule: Q01DX011 (ip), vehicle: carboxymethylcellulose (CMC)",2 % of control
same,T/C,"dose: 10.0 mg/kg/injection, schedule: Q01DX011 (ip), vehicle: olive oil, sesame oil, peanut oil",14 % of control
same,T/C,"dose: 10.0 mg/kg/injection, schedule: Q#A X022 (ip), vehicle: carboxymethylcellulose (CMC)",1 % of control
same,T/C,"dose: 16.0 mg/kg/injection, schedule: Q01DX011 (ip), vehicle: carboxymethylcellulose (CMC)",8 % of control
same,T/C,"dose: 20.0 mg/kg/injection, schedule: Q01DX006 (iv), vehicle: carboxymethylcellulose (CMC)",6 % of control
same,T/C,"dose: 20.0 mg/kg/injection, schedule: Q01DX011 (im), vehicle: carboxymethylcellulose (CMC)",2 % of control
same,T/C,"dose: 20.0 mg/kg/injection, schedule: Q01DX011 (ip), vehicle: carboxymethylcellulose (CMC)",1 % of control
same,T/C,"dose: 20.0 mg/kg/injection, schedule: Q#A X022 (ip), vehicle: carboxymethylcellulose (CMC)",2 % of control
same,T/C,"dose: 25.0 mg/kg/injection, schedule: Q01DX011 (ip), vehicle: carboxymethylcellulose (CMC)",6 % of control
same,T/C,"dose: 27.0 mg/kg/injection, schedule: Q01DX001 (ip), vehicle: carboxymethylcellulose (CMC)",73 % of control
same,T/C,"dose: 32.0 mg/kg/injection, schedule: Q01DX011 (ip), vehicle: carboxymethylcellulose (CMC)",3 % of control
same,T/C,"dose: 40.0 mg/kg/injection, schedule: Q01DX006 (iv), vehicle: carboxymethylcellulose (CMC)",1 % of control
same,T/C,"dose: 40.0 mg/kg/injection, schedule: Q01DX011 (im), vehicle: carboxymethylcellulose (CMC)",2 % of control
same,T/C,"dose: 40.0 mg/kg/injection, schedule: Q#A X022 (ip), vehicle: carboxymethylcellulose (CMC)",1 % of control
same,T/C,"dose: 54.0 mg/kg/injection, schedule: Q01DX001 (ip), vehicle: carboxymethylcellulose (CMC)",59 % of control
same,T/C,"dose: 64.0 mg/kg/injection, schedule: Q01DX011 (ip), vehicle: carboxymethylcellulose (CMC)",3 % of control
same,T/C,"dose: 75.0 mg/kg/injection, schedule: Q01DX011 (ip), vehicle: carboxymethylcellulose (CMC)",4 % of control
same,T/C,"dose: 107.0 mg/kg/injection, schedule: Q01DX001 (ip), vehicle: carboxymethylcellulose (CMC)",8 % of control
same,T/C,"dose: 214.0 mg/kg/injection, schedule: Q01DX001 (ip), vehicle: carboxymethylcellulose (CMC)",5 % of control
CCOC(=O)c1cc[c]([Sb](=[O])([OH])[OH])cc1,T/C,"dose: 12.0 mg/kg/injection, schedule: Q01DX011 (ip), vehicle: methylcellulose (MC)",116 % of control
same,T/C,"dose: 15.0 mg/kg/injection, schedule: Q01DX011 (ip), vehicle: carboxymethylcellulose (CMC)",70 % of control
same,T/C,"dose: 50.0 mg/kg/injection, schedule: Q01DX011 (ip), vehicle: methylcellulose (MC)",55 % of control
same,T/C,"dose: 100.0 mg/kg/injection, schedule: Q01DX011 (ip), vehicle: methylcellulose (MC)",102 % of control
CCOC(=O)c1c(C#N)c(Cl)nc(C)c1[N+](=O)[O-],T/C,"dose: 1.5 mg/kg/injection, schedule: Q01DX011 (ip), vehicle: carboxymethylcellulose (CMC)",60 % of control
same,T/C,"dose: 3.0 mg/kg/injection, schedule: Q01DX011 (ip), vehicle: carboxymethylcellulose (CMC)",70 % of control
Nc1nc(SCc2ccccc2F)c2ncn(C3OC(CO)C(O)C3O)c2n1 (configuration not stated),T/C,"dose: 1.5 mg/kg/injection, schedule: Q01DX011 (ip), vehicle: methylcellulose (MC)",106 % of control
same,T/C,"dose: 3.1 mg/kg/injection, schedule: Q01DX011 (ip), vehicle: methylcellulose (MC)",41 % of control
same,T/C,"dose: 6.2 mg/kg/injection, schedule: Q01DX011 (ip), vehicle: methylcellulose (MC)",7 % of control and 14 % of control
same,T/C,"dose: 12.5 mg/kg/injection, schedule: Q01DX011 (ip), vehicle: methylcellulose (MC)",1 % of control
same,T/C,"dose: 25.0 mg/kg/injection, schedule: Q01DX011 (ip), vehicle: methylcellulose (MC)",5 % of control
